# Source: ChEMBL document CHEMBL1147056, “Potentiation of mammary cancer inhibition by combination of antagonists of growth hormone-releasing hormone with docetaxel” (Proc Natl Acad Sci U S A, 2007)
# How the values were obtained:
# Mus musculus [1] = assay: Toxicity in human MX1 cells xenografted athymic nude Ncr nu/nu mouse assessed as body weight at 10 ug/day, sc after 24 days relative to control; format: organism-based; settings: in vivo, 576 h
# MX1 [2] = assay: Antitumor activity against human MX1 cells xenografted athymic nude Ncr nu/nu mouse assessed as inhibition of tumor weight at 10 ug/day, sc after 3 weeks; format: functional
# MX1 [3] = assay: Antitumor activity against human MX1 cells xenografted athymic nude Ncr nu/nu mouse assessed as inhibition of tumor volume at 10 ug/day, sc after 3 weeks; format: functional
# [4] = molecular target: Epidermal growth factor receptor (Homo sapiens, UniProt P00533); assay: Displacement of radiolabeled EGF from EGF receptor expressed in human MX1 cells; format: cell-based
# Sequence of Epidermal growth factor receptor (P00533 whole entry): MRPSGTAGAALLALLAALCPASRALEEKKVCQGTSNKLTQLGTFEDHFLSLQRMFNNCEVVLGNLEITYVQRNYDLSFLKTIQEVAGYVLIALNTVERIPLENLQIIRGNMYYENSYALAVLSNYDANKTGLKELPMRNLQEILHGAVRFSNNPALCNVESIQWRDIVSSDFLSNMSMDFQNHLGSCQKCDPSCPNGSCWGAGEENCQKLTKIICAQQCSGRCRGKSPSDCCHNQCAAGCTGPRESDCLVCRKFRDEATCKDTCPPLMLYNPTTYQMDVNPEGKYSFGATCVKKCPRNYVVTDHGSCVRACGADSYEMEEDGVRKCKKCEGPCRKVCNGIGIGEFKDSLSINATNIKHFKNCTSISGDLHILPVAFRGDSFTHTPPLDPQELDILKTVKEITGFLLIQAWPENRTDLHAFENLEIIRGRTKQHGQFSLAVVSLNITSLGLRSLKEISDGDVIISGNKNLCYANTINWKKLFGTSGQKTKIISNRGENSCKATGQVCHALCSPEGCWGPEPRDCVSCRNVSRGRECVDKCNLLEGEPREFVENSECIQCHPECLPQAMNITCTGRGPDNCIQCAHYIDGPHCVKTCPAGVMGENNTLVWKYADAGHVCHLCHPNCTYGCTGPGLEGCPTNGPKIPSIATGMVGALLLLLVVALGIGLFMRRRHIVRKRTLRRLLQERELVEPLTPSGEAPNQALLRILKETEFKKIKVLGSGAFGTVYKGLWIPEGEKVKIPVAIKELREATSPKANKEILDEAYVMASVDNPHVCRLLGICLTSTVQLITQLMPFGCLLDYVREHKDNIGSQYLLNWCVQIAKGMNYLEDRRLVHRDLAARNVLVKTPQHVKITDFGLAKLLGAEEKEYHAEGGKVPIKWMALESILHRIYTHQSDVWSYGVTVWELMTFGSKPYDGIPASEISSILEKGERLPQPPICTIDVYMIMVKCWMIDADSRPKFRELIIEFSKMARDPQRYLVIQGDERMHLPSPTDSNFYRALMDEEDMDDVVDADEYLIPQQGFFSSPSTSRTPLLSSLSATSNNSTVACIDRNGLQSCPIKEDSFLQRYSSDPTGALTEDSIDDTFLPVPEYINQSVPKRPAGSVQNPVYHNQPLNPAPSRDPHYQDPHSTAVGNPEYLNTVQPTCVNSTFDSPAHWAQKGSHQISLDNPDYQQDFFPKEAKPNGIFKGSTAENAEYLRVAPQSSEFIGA
# MX1 [5] = assay: Antitumor activity against human MX1 cells xenografted athymic nude Ncr nu/nu mouse assessed as inhibition of tumor weight at 20 mg/kg, ip after 15 days; format: functional; settings: 360 h, route intraperitoneal
# Mus musculus [6] = assay: Toxicity in human MX1 cells xenografted athymic nude Ncr nu/nu mouse assessed as body weight at 20 mg/kg, ip after 24 days relative to control; format: organism-based; set-up: dose 20 mg/kg, route intraperitoneal; settings: in vivo, 576 h
# MX1 [7] = assay: Antitumor activity against human MX1 cells xenografted athymic nude Ncr nu/nu mouse assessed as inhibition of tumor volume at 20 mg/kg, ip after 3 weeks; format: functional; settings: 504 h, route intraperitoneal
# MX1 [8] = assay: Antitumor activity against human MX1 cells xenografted athymic nude Ncr nu/nu mouse assessed as inhibition of tumor volume at 20 mg/kg, ip after 8 days; format: functional; settings: 192 h, route intraperitoneal
# [9] = molecular target: T1, Growth hormone-releasing hormone receptor (Homo sapiens, UniProt Q02643); assay: Displacement of [125I]JV1-42 from GHRH receptor expressed in human MX1 cells; format: cell-based
# T1 sequence (Q02643 whole entry): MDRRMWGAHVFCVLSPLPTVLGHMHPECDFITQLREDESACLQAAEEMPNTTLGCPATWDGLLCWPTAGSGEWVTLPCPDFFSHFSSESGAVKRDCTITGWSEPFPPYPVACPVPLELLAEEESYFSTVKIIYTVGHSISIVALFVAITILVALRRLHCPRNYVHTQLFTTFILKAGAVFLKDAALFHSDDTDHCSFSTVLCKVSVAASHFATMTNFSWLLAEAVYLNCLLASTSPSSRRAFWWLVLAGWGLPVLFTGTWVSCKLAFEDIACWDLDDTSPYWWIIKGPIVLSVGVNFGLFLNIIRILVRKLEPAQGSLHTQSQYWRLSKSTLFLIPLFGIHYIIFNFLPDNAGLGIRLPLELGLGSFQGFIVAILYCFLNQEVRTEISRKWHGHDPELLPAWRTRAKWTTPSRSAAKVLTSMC
smiles,measurement,setting,value
CCCC[C@H](NC(=O)[C@@H](NC(=O)[C@H](CC(=O)O)NC(=O)[C@H](CCC(N)=O)NC(=O)[C@H](CC(C)C)NC(=O)[C@H](CC(C)C)NC(=O)[C@H](CCCCN)NC(=O)[C@H](Cc1cnc[nH]1)NC(=O)[C@H](C)NC(=O)[C@H](CO)NC(=O)[C@H](CC(C)C)NC(=O)[C@H](CCC(N)=O)NC(=O)[C@H](CC)NC(=O)[C@H](CC(C)C)NC(=O)[C@@H](NC(=O)[C@H](CCCCN)NC(=O)[C@H](Cc1cnc[nH]1)NC(=O)[C@H](Cc1ccc(OC)cc1)NC(=O)[C@H](CCCCNC(=N)N)NC(=O)[C@H](C)NC(=O)[C@@H](NC(=O)[C@H](Cc1ccc(Cl)cc1)NC(=O)[C@@H](NC(=O)[C@H](C)NC(=O)[C@H](CC(=O)O)NC(=O)[C@@H](CCCNC(=N)N)NC(=O)[C@H](Cc1ccc(O)cc1)NC(=O)Cc1ccccc1)[C@@H](C)CC)[C@@H](C)O)C(C)C)[C@@H](C)CC)C(=O)N[C@H](CCCNC(=N)N)C(=O)N[C@@H](CCCCNC(=N)N)C(N)=O [listing 1 of 2 here],Activity,Mus musculus [1],24.6 g
CCCC[C@H](NC(=O)[C@@H](NC(=O)[C@H](CC(=O)O)NC(=O)[C@H](CCC(N)=O)NC(=O)[C@H](CC(C)C)NC(=O)[C@H](CC(C)C)NC(=O)[C@H](CCCCN)NC(=O)[C@H](Cc1cnc[nH]1)NC(=O)[C@H](C)NC(=O)[C@H](CO)NC(=O)[C@H](CC(C)C)NC(=O)[C@H](CCC(N)=O)NC(=O)[C@H](CC)NC(=O)[C@H](CC(C)C)NC(=O)[C@@H](NC(=O)[C@H](CCCCN)NC(=O)[C@H](Cc1cnc[nH]1)NC(=O)[C@H](Cc1ccc(OC)cc1)NC(=O)[C@H](CCCCNC(=N)N)NC(=O)[C@H](C)NC(=O)[C@@H](NC(=O)[C@H](Cc1ccc(Cl)cc1)NC(=O)[C@@H](NC(=O)[C@H](C)NC(=O)[C@H](CC(=O)O)NC(=O)[C@@H](CCCNC(=N)N)NC(=O)[C@H](Cc1ccc(O)cc1)NC(=O)Cc1ccccc1)[C@@H](C)CC)[C@@H](C)O)C(C)C)[C@@H](C)CC)C(=O)N[C@H](CCCNC(=N)N)C(=O)N[C@@H](CCCCNC(=N)N)C(N)=O [listing 2 of 2 here],Inhibition,MX1 [2],47.8%
same,Inhibition,MX1 [3],62.9%
CC[C@H](NC(=O)[C@H](CC(C)C)NC(=O)[C@@H](NC(=O)[C@H](CCCCN)NC(=O)[C@H](Cc1cnc[nH]1)NC(=O)[C@H](Cc1ccc(C)cc1)NC(=O)[C@H](CCCCNC(=N)N)NC(=O)[C@H](C)NC(=O)[C@@H](NC(=O)[C@H](Cc1ccc(Cl)cc1)NC(=O)[C@@H](NC(=O)[C@H](C)NC(=O)[C@H](CC(=O)O)NC(=O)[C@@H](CCCNC(=N)N)NC(=O)[C@H](Cc1ccc(O)cc1)NC(=O)Cc1ccccc1)[C@@H](C)CC)[C@@H](C)O)C(C)C)C(=O)N[C@@H](CCC(N)=O)C(=O)N[C@@H](CC(C)C)C(=O)N[C@@H](CO)C(=O)N[C@@H](C)C(=O)N[C@@H](Cc1cnc[nH]1)C(=O)N[C@@H](CCCCN)C(=O)N[C@@H](CC(C)C)C(=O)N[C@@H](CC(C)C)C(=O)N[C@@H](CCC(N)=O)C(=O)N[C@@H](CC(=O)O)C(=O)N[C@H](C(=O)N[C@H](C(=O)N[C@H](CCCNC(=N)N)C(=O)N[C@@H](CCCCNC(=N)N)C(N)=O)[C@@H](C)CC)[C@@H](C)CC,Bmax,[4],92.4 fmol/mg
same,Kd,[4],0.94 nM
same,inhibition,[4]; concentration not given here,68%
CC(=O)O[C@@]12CO[C@@H]1C[C@H](O)[C@@]1(C)C(=O)[C@H](O)C3=C(C)[C@@H](OC(=O)[C@H](O)[C@@H](NC(=O)OC(C)(C)C)c4ccccc4)C[C@@](O)([C@@H](OC(=O)c4ccccc4)[C@H]21)C3(C)C.O.O.O [DOCETAXEL],inhibition in vivo at 20 mg/kg,MX1 [5],58.6%
same,Activity,Mus musculus [6],24 g
same,inhibition in vivo at 20 mg/kg,MX1 [7],74.1%
same,inhibition in vivo at 20 mg/kg,MX1 [8],29%
same,IC50,[9],0.14 nM
same,Bmax,[4],278 fmol/mg
same,Kd,[4],0.82 nM
